Source: patent publication US8058309B2, “Protein kinase modulators and therapeutic uses thereof” (Novotyr Therapeutics Ltd., priority 2006, dated 2011)
Like-named read-outs stand apart in the source and are kept apart here.

Tests used:
[1] = system: ovarian cancer A2780 cells; experiment: Apoptosis (cleaved PARP) in A2780 cells; format: cell-based, human; settings: 21 hours of exposure
From the text: […] Lysate preparation and western blot were the same as described above. Apoptosis was detected by immunoblotting with rabbit anti-PARP antibodies.

T47D = experiment: Proliferation assay T47D; format: cell-based; settings: Homo sapiens, Breast, 72 hours
Method: (§1) Various cancer cell lines (listed in table 1) were plated at a density of 1000-5000 cells/well in 96-well plates in 90111 growth medium containing 10% FCS, 100 units/ml penicillin and 100 μg/ml streptomycin. Inhibitors were added a day later in 10 μl of 1% DMSO in DDW to obtain final concentrations of 0, 0.1, 0.3, 1, 3, and 10 μM. The final concentration of DMSO (0.1% DMSO) was kept constant in all samples. Medium with inhibitors was refreshed a day and two days later. Following exposure of the cells to the inhibitors for 72 hours at 37° C., the cells were fixed in 0.5% gluteraldehyde in medium for 10 min, washed three times with DDW, once with 0.1M sodium borate buffer pH 8.5 and stained with 1% methylene blue dissolved in 0.1M borate buffer solution for 60 min. Excess dye was washed out and cell-bound dye was eluted with 200 μl/well of 0.1 M HCl. The optical density value was read at 620 nm in ELISA plate reader. The data was analyzed in Microsoft Excel, using the vehicle control as 100% proliferation. The assays were performed in triplicates. The values in table 1 represent IC50 values derived from the dose-dependent growth curves obtained.
(§2) Compounds 6, 7, 8, and 9 were tested for their inhibitory potential in cell proliferation assay. In this assay cells were exposed to increasing concentrations of the molecules (at 0.1% DMSO in all wells) a day after seeding. Medium and inhibitors were refreshed every day, and following three days of treatment, cells were fixed and stained with methylene-Blue. IC50 values were determined from the curves of the optical density against compound concentration. The assay was performed in triplicates.

PANC1 = experiment: Proliferation assay PANC1; format: cell-based; settings: Homo sapiens, PANC-1, Pancreatic, 72 hours
Method: as §1, §2

NCl-H1975 = experiment: Proliferation assay NCl-H1975; format: cell-based; settings: Lung, 72 hours
Method: as §1, §2

U87MG = experiment: Proliferation assay U87MG; format: cell-based; settings: Homo sapiens, U-87 MG, Glioma, 72 hours
Method: as §1, §2

IGF1R = target: T1, IGF1R (Homo sapiens, UniProt P08069); experiment: IGF1R cellular free kinase assay (pGT substrate phosphorylation); format: biochemical; settings: for Competition with ATP (kinetic studies): elevation of ATP concentration
T1 construct: made in house
T1 sequence (P08069 31-1367, species assumed): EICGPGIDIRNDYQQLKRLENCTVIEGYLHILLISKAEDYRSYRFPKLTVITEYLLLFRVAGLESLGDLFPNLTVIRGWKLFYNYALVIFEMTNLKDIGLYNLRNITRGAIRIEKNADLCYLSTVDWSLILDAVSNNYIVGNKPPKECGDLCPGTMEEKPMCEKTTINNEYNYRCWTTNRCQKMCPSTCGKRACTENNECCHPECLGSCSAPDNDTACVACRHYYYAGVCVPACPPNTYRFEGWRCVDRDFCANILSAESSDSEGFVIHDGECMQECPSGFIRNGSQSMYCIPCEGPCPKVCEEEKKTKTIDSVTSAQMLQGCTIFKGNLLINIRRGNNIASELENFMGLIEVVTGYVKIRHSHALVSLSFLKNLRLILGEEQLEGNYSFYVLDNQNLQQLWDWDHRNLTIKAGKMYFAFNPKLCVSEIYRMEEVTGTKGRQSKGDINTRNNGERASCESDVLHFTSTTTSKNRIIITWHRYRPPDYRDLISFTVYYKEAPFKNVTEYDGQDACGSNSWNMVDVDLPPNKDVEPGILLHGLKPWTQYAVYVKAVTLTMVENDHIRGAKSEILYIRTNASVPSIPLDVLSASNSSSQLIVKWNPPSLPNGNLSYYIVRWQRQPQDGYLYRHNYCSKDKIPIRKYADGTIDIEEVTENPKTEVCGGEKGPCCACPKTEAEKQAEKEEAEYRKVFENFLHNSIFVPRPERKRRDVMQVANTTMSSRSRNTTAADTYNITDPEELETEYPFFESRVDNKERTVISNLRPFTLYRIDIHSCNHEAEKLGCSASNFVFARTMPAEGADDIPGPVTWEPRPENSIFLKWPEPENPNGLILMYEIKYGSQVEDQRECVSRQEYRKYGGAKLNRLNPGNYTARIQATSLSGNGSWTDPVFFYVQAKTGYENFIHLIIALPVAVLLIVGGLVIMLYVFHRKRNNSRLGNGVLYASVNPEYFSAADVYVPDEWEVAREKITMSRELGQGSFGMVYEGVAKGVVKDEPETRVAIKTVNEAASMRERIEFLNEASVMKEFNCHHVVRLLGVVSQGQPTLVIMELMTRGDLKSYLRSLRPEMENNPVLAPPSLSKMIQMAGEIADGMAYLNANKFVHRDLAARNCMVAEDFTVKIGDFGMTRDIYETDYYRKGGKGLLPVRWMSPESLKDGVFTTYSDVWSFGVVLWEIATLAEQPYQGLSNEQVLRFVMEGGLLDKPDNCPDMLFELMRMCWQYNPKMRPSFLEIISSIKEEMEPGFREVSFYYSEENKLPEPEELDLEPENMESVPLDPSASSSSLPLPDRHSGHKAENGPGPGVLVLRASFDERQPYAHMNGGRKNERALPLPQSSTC
Method: The general protein-tyrosine kinase substrate, poly(Glu,Tyr) 4:1 (pGT), was coated onto a 96-well Maxisorp plates (Nunc) by adding 125 μl of 0.1 mg/ml pGT in PBS to each well. Plates were sealed and incubated for 16 hours at 37° C., washed once with TBST (10 mM Tris-HCl, pH 7.5, 50 mM NaCl, and 0.1% Triton X-100) and once with DDW, dried for 2-3 hours, and stored at 4° C. […] The plate was then washed with TBS with 0.2% Tween 20 (TBST) and blocked with 0.5% BSA in TBST. Mouse monoclonal anti-phosphotyrosine antibody, conjugated to Horse radish peroxidase (PT-66, 1:50000) was added to the plate. Following incubation for 45 min at room temperature, the plate was washed repeatedly with TBST. Detection was carried out with a color reagent, 2,2′-azido-bis-3-ethylbenzithiazoline-6-sulfonic acid, in citrate-phosphate buffer, pH 4.0, with 0.004% H2O2 for 10 min and monitored at 405 nm, all at room temperature. IC50 values of inhibitors were calculated using the REGRESSION program. The assay was optimized with respect to the amount of IGF-1R (partially purified from cells overexpressing IGF1R), reaction time, and ATP concentration. The signal was linear for 30 min in the range of IGF1R protein concentrations up to 35 ng/well.

MDA MB 231 = experiment: Proliferation assay MDA MB 231; format: cell-based; settings: Homo sapiens, Breast, 72 hours
Method: as §1, §2

MO59K = experiment: Proliferation assay MO59K; format: cell-based; settings: Glioma, 72 hours
Method: as §1, §2

QG56 = experiment: Clonogenic assay QG56; format: cell-based; settings: Homo sapiens, QG-56, Lung
Method: Various cancer cells (listed in table 1) were seeded at a very low concentration (19 cells/well in 96-well plates or 63 cells/well in 24-well plates) in growth medium. A day later medium was replaced with growth medium containing various concentrations of inhibitors in a final concentration of 0.1% DMSO. The inhibitor-containing medium was refreshed three times a week. Following approximately two weeks cells were fixed by adding Gluteraldehide (0.5% final concentration) for 10 min, washed three time with DDW, once with borate buffer 0.1M and stained for 1 hour with 1% Methylene Blue in borate buffer 0.1M. Access stain was washed with water, and following drying colonies were counted. Alternatively, stain was extracted by 0.1N HCl for 1 hour and absorbance at 620 nm was measured by ELISA Reader. The assays were performed in triplicates. The values in table 1 represent IC50 values derived from the dose-dependent growth curves obtained.

A2780 = experiment: Proliferation assay A2780; format: cell-based; settings: Homo sapiens, Ovarian, 72 hours
Method: as §1, §2

IRS1 = IRS1 Ser-phosphorylation and IRS1 levels in A2780 cells; format: cell-based, human; settings: ovarian cancer A2780 cells
Method: In addition, lysates were prepared from cells exposed to inhibitors at various concentrations for 24 hours in the presence or the absence of FCS without stimulation. Lysate preparation and western blot were the same as described above. Apoptosis was detected by immunoblotting with rabbit anti-PARP antibodies.

[2] = partially purified IGF1R, 20 μM ATP, read-out: IC50 values of IGF1R activity in cellular free kinase assay
[3] = [ATP] 2.5 μM, read-out: IC50, competition with ATP in cellular free kinase assay of IGF1R
[4] = [ATP] 5 μM, read-out: IC50, competition with ATP in cellular free kinase assay of IGF1R
[5] = [ATP] 10 μM, read-out: IC50, competition with ATP in cellular free kinase assay of IGF1R
[6] = [ATP] 20 μM, read-out: IC50, competition with ATP in cellular free kinase assay of IGF1R
[7] = [ATP] 50 μM, read-out: IC50, competition with ATP in cellular free kinase assay of IGF1R

IC50 (T47D)	IC50 (PANC1)	IC50 (NCl-H1975)	IC50 (U87MG)	IC50 (IGF1R; [2])	IC50 (QG56)	IC50 (A2780)	IC50 (IGF1R; [3])	IC50 (IGF1R; [4])	IC50 (IGF1R; [5])	IC50 (IGF1R; [6])	IC50 (IGF1R; [7])	Competition with ATP (kinetic studies) (IGF1R)	Compound	Apoptosis (cleaved PARP detection) [1]	IC50 (MDA MB 231)	IC50 (MO59K)	Cellular IRS1 levels (IRS1)	IRS1 Ser-phosphorylation (shift up of IRS1 band) (IRS1)
1.6 µM	> 10 µM	2.7 µM	6.6 µM	0.078 µM	0.5 µM	0.4 µM	–	–	–	–	–	–	Oc1cc(CNC(=S)/C=C/c2cc(O)c(O)c(Br)c2)cc(O)c1O [Compound 9]	undergo apoptosis	> 10 µM	1.4 µM	a decrease in cellular IRS1 levels	induced Ser-phosphorylation
2.1 µM	> 10 µM	2.5 µM	6.9 µM	0.116 µM	1.7 µM	0.6 µM	0.19 µM	0.163 µM	0.124 µM	0.09 µM	0.08 µM	do not compete with ATP	N#C/C(=C\c1cc(O)c(O)c(Br)c1)C(=S)NCc1cc(O)c(O)c(O)c1 [Compound 7]	undergo apoptosis	6.3 µM	0.7 µM	a decrease in cellular IRS1 levels	induced Ser-phosphorylation
> 10 µM	> 10 µM	> 10 µM	> 10 µM	0.098 µM	2.4 µM	6.8 µM	0.074 µM	0.056 µM	0.092 µM	0.055 µM	0.098 µM	do not compete with ATP	N#C/C(=C\c1cc(O)c(O)c(Br)c1)C(=S)NCc1cc(O)c(O)c(Br)c1 [Compound 6]	undergo apoptosis	> 10 µM	6.8 µM	–	–
2.5 µM	> 10 µM	2.3 µM	2.4 µM	0.076 µM	1.4 µM	0.6 µM	0.19 µM	0.11 µM	0.1 µM	0.08 µM	0.1 µM	do not compete with ATP	N#C/C(=C\c1cc(O)c(O)c(I)c1)C(=S)NCc1cc(O)c(O)c(O)c1 [Compound 8]	undergo apoptosis	7.4 µM	0.9 µM	a decrease in cellular IRS1 levels	induced Ser-phosphorylation
